From US8003670B2, “Aminoalkoxy aryl sulfonamide compounds and their use as 5-HT6 ligands” (Suven Life Sciences Limited, priority 2007, dated 2011)
Structures can show the parent of a compound that is named as a salt. Each block holds one molecule with its values, some of them ahead of it.

Experiments:
5-HT6 receptor [1] = target: T1, 5-HT6 receptor (Homo sapiens, UniProt P50406); test: Binding assay for human 5-HT6 receptor ([3H]LSD radioligand); design: expressed in transfected cells; host or cells: HEK293; details: human recombinant receptor in HEK293 cells, [3H]LSD 1.5 nM; for inhibition at 0.1 µM: 100 nM test compound, read-out: Radioligand binding data at 5-HT6 R (h) % Inhibition of specific binding at 100 nM; for Ki: 37° C., read-out: Radioligand binding data at 5-HT6 R (h) Ki
T1 sequence (P50406 whole entry): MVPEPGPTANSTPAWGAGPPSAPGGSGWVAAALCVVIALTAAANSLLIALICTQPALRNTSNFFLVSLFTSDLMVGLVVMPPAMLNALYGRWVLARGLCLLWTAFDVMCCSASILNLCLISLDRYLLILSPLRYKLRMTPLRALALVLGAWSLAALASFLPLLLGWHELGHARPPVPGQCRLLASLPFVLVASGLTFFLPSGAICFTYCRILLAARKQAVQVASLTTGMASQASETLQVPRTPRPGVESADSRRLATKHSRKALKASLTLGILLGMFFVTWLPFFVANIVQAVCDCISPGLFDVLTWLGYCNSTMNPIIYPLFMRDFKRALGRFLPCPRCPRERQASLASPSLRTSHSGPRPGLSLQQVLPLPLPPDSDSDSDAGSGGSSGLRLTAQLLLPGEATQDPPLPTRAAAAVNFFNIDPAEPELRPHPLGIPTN
Experimental: Compounds can be tested according to the following the procedures.
Receptor source: Human recombinant expressed in HEK293 cells
Radioligand: [^3H]LSD (60-80 Ci/mmol)
Final ligand concentration—[1.5 nM]
Non-specific determinant: Methiothepin mesylate—[0.1 μM]
Reference compound: Methiothepin mesylate
Positive control: Methiothepin mesylate
Reactions were carried out in […] TRIS-HCl (pH 7.4) containing […] MgCl2, 0.5 mM EDTA for […] at 37° C. The reaction was terminated by rapid vacuum filtration onto glass fiber filters. Radioactivity trapped onto the filters was determined and compared to control values in order to ascertain any interactions of test compound(s) with the cloned serotonin 5-HT6 binding site.
Mol. Pharmacol. (43): 320-327 (1993).

[2] = test system: animal models for schizophrenia; details: literature (Pouzet et al. 2002); cited from earlier work
5-HT6 receptor [3] = target: T1, 5-HT6 receptor; details: literature; cited from earlier work

melting point: 289.9 to 291.5 °C
Compound: CCc1ccc(S(=O)(=O)n2cc(Br)c3cc(F)ccc32)cc1OC1CCNCC1.Cl

melting point: 201.46 to 204.21 °C
Compound: CCc1ccc(S(=O)(=O)n2ccc3cc(F)ccc32)cc1OC1CCNCC1.Cl

melting point: 258.3 to 259.5 °C
Compound: Cl.O=S(=O)(c1ccc(Cl)c(OC2CCNCC2)c1)n1ccc2ccc(Cl)cc21

Ki (5-HT6 receptor [1]): 5.87 nM
Compound: Cc1ccc(S(=O)(=O)n2ccc3cc(F)ccc32)cc1OCCN(C)C [Example 11, 5-Fluoro-1-[4′-methyl-3′-(N,N-dimethylaminoethoxy)benzenesulfonyl]-1H-indole]

Ki (5-HT6 receptor [1]): 11.2 nM
Compound: COc1ccc2c(ccn2S(=O)(=O)c2ccc(C)c(OCCN(C)C)c2)c1 [Example 13, 1-[4′-Methyl-3′-(N,N-dimethylaminoethoxy)benzenesulfonyl]-5-methoxy-1H-indole]

Ki (5-HT6 receptor [1]): 1.86 nM
Compound: Cc1ccc(S(=O)(=O)n2ccc3ccccc32)cc1OCCCN(C)C [Example 16, 1-[4′-Methyl-3′-(N,N-dimethylaminopropoxy)benzenesulfonyl]-1H-indole]

Ki (5-HT6 receptor [1]): 30.9 nM
Compound: COc1ccc2c(ccn2S(=O)(=O)c2ccc(C)c(OCCCN(C)C)c2)c1 [Example 19, 1-[4′-Methyl-3′-(N,N-dimethylaminopropoxy)benzenesulfonyl]-5-methoxy-1H-indole]

inhibition at 0.1 µM (5-HT6 receptor [1]): 89.4%
Compound: Cc1ccc(S(=O)(=O)n2ccc3cc(F)ccc32)cc1OC1CCN(C)CC1 [Example 24, 5-Fluoro-1-(4′-methyl-3′-(1-methylpiperidin-4-yloxy)benzenesulfonyl)-1H-indole hydrochloride]

Ki (5-HT6 receptor [1]): 7.55 nM
Compound: CCc1ccc(S(=O)(=O)n2ccc3cc(Br)ccc32)cc1OCCCN(C)C [Example 32, 5-Bromo-1-[4′-Ethyl-3′-(N,N-dimethylaminopropoxy)benzenesulfonyl]-1H-indole]

Ki (5-HT6 receptor [1]): 5.8 nM
Compound: CCc1ccc(S(=O)(=O)n2ccc3ccc(Cl)cc32)cc1OCCCN(C)C [Example 33, 1-[4′-Ethyl-3′-(N,N-dimethylaminopropoxy)benzenesulfonyl]-6-chloro-1H-indole]

inhibition at 0.1 µM (5-HT6 receptor [1]): 66.9%
melting point: 73.2 to 74.5 °C
Compound: CC(C)c1ccc(S(=O)(=O)n2ccc3cc(F)ccc32)cc1OC1CCN(C)CC1 [Example 53, 5-Fluoro-1-[4′-isopropyl-3′-(1-methylpiperidin-4-yloxy)benzenesulfonyl]-1H-indole]

inhibition at 0.1 µM (5-HT6 receptor [1]): 99.7%
Compound: Cc1ccc(S(=O)(=O)n2cc(C)c3ccccc32)cc1OC1CCN(C)CC1 [Example 54, 3-Methyl-1-[4′-methyl-3′-(1-methylpiperidin-4-yloxy)benzenesulfonyl]-1H-indole]

inhibition at 0.1 µM (5-HT6 receptor [1]): 89%
Compound: CCc1ccc(S(=O)(=O)n2ccc3cc(OC)ccc32)cc1OC1CCN(C)CC1 [Example 55, 5-Methoxy-1-[4-ethyl-3-(1-methylpiperidin-4-yloxy)benzenesulfonyl]-1H-indole]

inhibition at 0.1 µM (5-HT6 receptor [1]): 88.6%
melting point: 231.2 to 232.7 °C
Compound: COc1ccc2c(ccn2S(=O)(=O)c2ccc(OC)c(OC3CCNCC3)c2)c1.Cl [Example 56, 5-Methoxy-1-[4′-methoxy-3′-(piperidin-4-yloxy)benzenesulfonyl]-1H-indole hydrochloride]

inhibition at 0.1 µM (5-HT6 receptor [1]): 91.6%
Compound: COc1ccc(S(=O)(=O)n2ccc3cc(F)ccc32)cc1OC1CCN(C)CC1 [Example 58, 5-Fluoro-1-[4′-methoxy-3′-(1-methylpiperidin-4-yloxy)benzenesulfonyl]-1H-indole]

inhibition at 0.1 µM (5-HT6 receptor [1]): 89.8%
Compound: CN1CCC(Oc2cc(S(=O)(=O)n3ccc4cc(F)ccc43)ccc2Cl)CC1 [Example 59, 5-Fluoro-1-[4′-chloro-3′-(1-methylpiperidin-4-yloxy)benzenesulfonyl]-1H-indole]

melting point: 112 to 115 °C
Compound: COc1ccc(S(=O)(=O)n2ccc3ccc(Cl)cc32)cc1OC1CCN(C)CC1 [Example 62, 6-Chloro-1-[4′-methoxy-3′-(1-methylpiperidin-4-yloxy)benzenesulfonyl]-1H-indole]

melting point: 127.2 to 128 °C
Compound: COc1ccc(S(=O)(=O)n2ccc3cc(Br)ccc32)cc1OC1CCN(C)CC1 [Example 63, 5-Bromo-1-[4′-methoxy-3′-(1-methylpiperidin-4-yloxy)benzenesulfonyl]-1H-indole]

melting point: 133.2 to 134.5 °C
Compound: CCc1ccc(S(=O)(=O)n2cc(Br)c3cc(F)ccc32)cc1OC1CCN(C)CC1 [Example 67, 3-Bromo-5-fluoro-1-[4′-ethyl-3′-(1-methylpiperidin-4-yloxy)benzenesulfonyl]-1H-indole]

Ki (5-HT6 receptor [1]): 13.6 nM
Compound: Cc1ccc(S(=O)(=O)n2ccc3c(Cl)cccc32)cc1OCCCN(C)C [Example 79, 4-Chloro-1-[4′-Methyl-3′-(N,N-dimethylaminopropoxy)benzenesulfonyl]-1H-indole]

Further lines, the molecule ahead of its results:

Compound: CN1CCC(Oc2cccc(S(=O)(=O)n3ccc4cc(F)ccc43)c2)CC1 [Example 8, 5-Fluoro-1-[3′-(1-methylpiperidin-4-yloxy)benzenesulfonyl]-1H-indole]
inhibition at 0.1 µM (5-HT6 receptor [1]): 61.7%

Compound: COc1ccc2c(ccn2S(=O)(=O)c2cccc(OC3CCN(C)CC3)c2)c1 [Example 9, 5-Methoxy-1-[3′-(1-methylpiperidin-4-yloxy)benzenesulfonyl]-1H-indole]
inhibition at 0.1 µM (5-HT6 receptor [1]): 58.2%

Compound: Cc1ccc(S(=O)(=O)n2ccc3ccccc32)cc1OCCN(C)C [Example 10, 1-[4′-Methyl-3′-(N,N-dimethylaminoethoxy)benzenesulfonyl]-1H-indole]
Ki (5-HT6 receptor [1]): 2.75 nM

Compound: Cc1ccc(S(=O)(=O)n2ccc3cc(Br)ccc32)cc1OCCN(C)C [Example 12, 5-Bromo-1-[4′-methyl-3′-(N,N-dimethylaminoethoxy)benzenesulfonyl]-1H-indole]
Ki (5-HT6 receptor [1]): 28.3 nM

Compound: Cc1ccc(S(=O)(=O)n2ccc3ccc(Cl)cc32)cc1OCCN(C)C [Example 15, 6-Chloro-1-[4′-methyl-3′-(N,N-dimethylaminoethoxy)benzenesulfonyl]-1H-indole]
Ki (5-HT6 receptor [1]): 1.57 nM

Compound: Cc1ccc(S(=O)(=O)n2ccc3cc(F)ccc32)cc1OCCCN(C)C [Example 17, 5-Fluoro-1-[4′-Methyl-3′-(N,N-dimethylaminopropoxy)benzenesulfonyl]-1H-indole]
Ki (5-HT6 receptor [1]): 12.5 nM

Compound: Cc1ccc(S(=O)(=O)n2ccc3cc(Br)ccc32)cc1OCCCN(C)C [Example 18, 5-Bromo-1-[4′-Methyl-3′-(N,N-dimethylaminopropoxy)benzenesulfonyl]-1H-indole]
Ki (5-HT6 receptor [1]): 11.8 nM

Compound: CCOc1ccc2c(ccn2S(=O)(=O)c2ccc(C)c(OCCCN(C)C)c2)c1 [Example 20, 5-Ethoxy-1-[4′-methyl-3′-(N,N-dimethylaminopropoxy)benzenesulfonyl]-1H-indole]
Ki (5-HT6 receptor [1]): 12.4 nM

Compound: Cc1ccc(S(=O)(=O)n2ccc3ccc(Cl)cc32)cc1OCCCN(C)C [Example 21, 6-Chloro-1-[4′-methyl-3′-(N,N-dimethylaminopropoxy)benzenesulfonyl]-1H-indole]
Ki (5-HT6 receptor [1]): 13.1 nM

Compound: CCc1ccc(S(=O)(=O)n2ccc3ccccc32)cc1OCCN(C)C [Example 26, 1-[4′-Ethyl-3′-(N,N-dimethylaminoethoxy)benzenesulfonyl]-1H-indole]
Ki (5-HT6 receptor [1]): 1.9 nM

Compound: CCc1ccc(S(=O)(=O)n2ccc3cc(F)ccc32)cc1OCCN(C)C [Example 30, 1-[4′-Ethyl-3′-(N,N-dimethylaminoethoxy)benzenesulfonyl]-5-fluoro-1H-indole]
Ki (5-HT6 receptor [1]): 5.44 nM

Compound: CCc1ccc(S(=O)(=O)n2ccc3ccccc32)cc1OCCCN(C)C [Example 31, 1-[4′-Ethyl-3′-(N,N-dimethylaminopropoxy)benzenesulfonyl]-1H-indole]
Ki (5-HT6 receptor [1]): 35.2 nM

Compound: CCc1ccc(S(=O)(=O)n2ccc3cc(F)ccc32)cc1OCCCN(C)C [Example 35, 1-[4′-Ethyl-3′-(N,N-dimethylaminopropoxy)benzenesulfonyl]-5-fluoro-1H-indole]
Ki (5-HT6 receptor [1]): 18.8 nM

Compound: CC(C)c1ccc(S(=O)(=O)n2ccc3ccccc32)cc1OCCN(C)C [Example 36, 1-[4′-Isopropyl-3′-(N,N-dimethylaminoethoxy)benzenesulfonyl]-1H-indole]
Ki (5-HT6 receptor [1]): 13.9 nM

Compound: COc1ccc2c(ccn2S(=O)(=O)c2ccc(C(C)C)c(OCCCN(C)C)c2)c1 [Example 43, 1-[4′-Isopropyl-3′-(N,N-dimethylaminopropoxy)benzenesulfonyl]-5-Methoxy-1H-indole]
Ki (5-HT6 receptor [1]): 62.5 nM

Compound: COc1ccc2c(ccn2S(=O)(=O)c2ccc(C(C)C)c(OC3CCN(C)CC3)c2)c1 [Example 52, 5-Methoxy-1-[4′-isopropyl-3′-(1-methylpiperidin-4-yloxy)benzenesulfonyl]-1H-indole]
inhibition at 0.1 µM (5-HT6 receptor [1]): 31.5%

Compound: COc1ccc2c(c1)c(C)cn2S(=O)(=O)c1ccc(C(C)C)c(OC2CCN(C)CC2)c1 [Example 61, 5-Methoxy-3-methyl-1-[4′-isopropyl-3′-(1-methylpiperidin-4-yloxy)benzenesulfonyl]-1H-indole]
melting point: 73.2 to 74.5 °C

Compound: COc1ccc(NS(=O)(=O)c2sc3ccc(Cl)cc3c2C)cc1N1CCNCC1 [SB-271046, 5-Chloro-N-(4-methoxy-3-piperazin-1-ylphenyl)-3-methyl-2-benzothiophenesulfonamide]
Activity in animal tests related to positive or negative symptoms of schizophrenia [2]: inactive

Compound: CN(C)CCC=C1c2ccccc2CCc2ccccc21 [amitriptyline]
Affinity for the 5-HT6 receptor (in words) (5-HT6 receptor [3]): high affinity

Compound: CN1CCN2c3ccccc3Cc3ccccc3C2C1 (stereo not drawn) [mianserin]
Affinity for the 5-HT6 receptor (in words) (5-HT6 receptor [3]): high affinity
